# According to ChEMBL document CHEMBL1154267, “Imidazo[1,5-a][1,2,4]-triazolo[1,5-d][1,4]benzodiazepines as potent and highly selective GABAA alpha5 inverse agonists with potential for the treatment of cognitive dysfunction” (Bioorg Med Chem Lett, 2009):
# Active and inactive are the calls of the source. No cut-off for these calls is given here.
# Tested on: Liver microsomes
# Experiment: Clearance in human liver microsomes
# Format: ADME, Microsome
# Details: not given
row,SMILES,CL [mL/min/mg]
1,Cc1ncn2c1Cn1nc(CN3CCCC3=O)nc1-c1cc(Br)ccc1-2,3

# Tested on: Rattus norvegicus
# Experiment: Behavioral effect in Lister hooded rat assessed as inhibition of scopolamine-induced impairment of working memory at 1 to 3 mg/kg, po after 30 mins by delayed match to position test
# Format: functional, organism-based
# Details: not given
row,SMILES,Activity
1,Cc1ncn2c1Cn1nc(CN3CCCC3=O)nc1-c1cc(Br)ccc1-2,inactive

# Molecular target: GABA-A receptor; alpha-1/beta-3/gamma-2 (Homo sapiens) (UniProt P14867+P18507+P28472)
# Experiment: Inverse agonist activity at GABAA alpha-1-beta-3-gamma-2 receptor assessed as modulation of GABA-induced chloride ion flux by electrophysiology assay relative to GABA
# Format: functional
# Details: not given
row,SMILES,Efficacy [%]
1,Cc1cc(-c2nnc3c4ccccc4c(OCc4ccccn4)nn23)no1,-9
2,Cc1ncn2c1Cn1ncnc1-c1cc(Br)ccc1-2,-16

# Tested on: Rattus norvegicus
# Experiment: Behavioral effect in Lister hooded rat assessed as reversal of Scopolamine-induced impairment of working memory at 1 mg/kg, ip administered 30 mins before Scopolamine challenge by delayed match to position test
# Format: functional, organism-based
# Parameters: dose 1 mg/kg
# Details: not given
row,SMILES,Activity
1,Cc1cc(-c2nnc3c4ccccc4c(OCc4ccccn4)nn23)no1,Active

# Tested on: Rattus norvegicus
# Experiment: Behavioral effect in Lister hooded rat assessed as reversal of Scopolamine-induced impairment of working memory at 1 to 3 mg/kg, ip administered 30 mins before Scopolamine challenge by delayed match to position test
# Format: functional, organism-based
# Details: not given
row,SMILES,Activity
1,Cc1ncn2c1Cn1nc(CN3CCCC3=O)nc1-c1cc(Br)ccc1-2,Dose-dependent effect

# Molecular target: GABA-A receptor; alpha-3/beta-3/gamma-2 (Homo sapiens) (UniProt P18507+P28472+P34903)
# Experiment: Inverse agonist activity at GABAA alpha-3-beta-3-gamma-2 receptor assessed as modulation of GABA-induced chloride ion flux by electrophysiology assay relative to GABA
# Format: functional
# Details: not given
row,SMILES,Efficacy [%]
1,Cc1cc(-c2nnc3c4ccccc4c(OCc4ccccn4)nn23)no1,10

# Molecular target: GABA-A receptor; alpha-5/beta-3/gamma-2 (Homo sapiens) (UniProt P18507+P28472+P31644)
# Experiment: Inverse agonist activity at GABAA alpha-5-beta-3-gamma-2 receptor assessed as modulation of GABA-induced chloride ion flux by electrophysiology assay relative to GABA
# Format: functional
# Details: not given
row,SMILES,Efficacy [%]
1,Cc1ncn2c1Cn1nc(CN3CCCC3=O)nc1-c1cc(Br)ccc1-2,-34
2,Cc1cc(-c2nnc3c4ccccc4c(OCc4ccccn4)nn23)no1,-41
3,Cc1ncn2c1Cn1ncnc1-c1cc(Br)ccc1-2,-42

# Molecular target: T1, GABA-A receptor; alpha-3/beta-3/gamma-2 (Homo sapiens, UniProt P18507+P28472+P34903)
# T1 sequence (P18507 whole entry): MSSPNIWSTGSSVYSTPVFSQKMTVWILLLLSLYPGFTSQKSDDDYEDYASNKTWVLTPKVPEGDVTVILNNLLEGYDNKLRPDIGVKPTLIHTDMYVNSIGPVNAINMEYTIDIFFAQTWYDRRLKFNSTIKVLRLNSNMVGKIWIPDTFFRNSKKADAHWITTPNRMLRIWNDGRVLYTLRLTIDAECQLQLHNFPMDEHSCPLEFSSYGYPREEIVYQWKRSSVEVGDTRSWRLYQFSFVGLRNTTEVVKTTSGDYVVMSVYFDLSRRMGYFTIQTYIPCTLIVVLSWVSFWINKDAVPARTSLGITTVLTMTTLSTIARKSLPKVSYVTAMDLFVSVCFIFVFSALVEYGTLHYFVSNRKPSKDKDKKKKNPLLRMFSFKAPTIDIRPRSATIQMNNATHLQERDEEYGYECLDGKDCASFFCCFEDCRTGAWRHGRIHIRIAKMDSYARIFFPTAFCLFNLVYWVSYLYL
# T1 sequence (P28472 whole entry): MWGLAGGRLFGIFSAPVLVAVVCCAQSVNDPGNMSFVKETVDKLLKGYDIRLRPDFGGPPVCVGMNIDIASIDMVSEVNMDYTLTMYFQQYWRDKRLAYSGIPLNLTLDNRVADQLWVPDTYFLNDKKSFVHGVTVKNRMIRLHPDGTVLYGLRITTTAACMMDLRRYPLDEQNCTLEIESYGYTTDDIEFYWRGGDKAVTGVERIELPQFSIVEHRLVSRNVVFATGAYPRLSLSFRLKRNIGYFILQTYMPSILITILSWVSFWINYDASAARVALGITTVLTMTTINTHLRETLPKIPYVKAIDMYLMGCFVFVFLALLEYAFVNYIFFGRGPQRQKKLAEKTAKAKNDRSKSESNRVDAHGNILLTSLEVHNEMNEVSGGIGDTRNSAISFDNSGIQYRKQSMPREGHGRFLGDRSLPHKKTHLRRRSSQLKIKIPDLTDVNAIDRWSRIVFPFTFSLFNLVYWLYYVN
# T1 sequence (P34903 whole entry): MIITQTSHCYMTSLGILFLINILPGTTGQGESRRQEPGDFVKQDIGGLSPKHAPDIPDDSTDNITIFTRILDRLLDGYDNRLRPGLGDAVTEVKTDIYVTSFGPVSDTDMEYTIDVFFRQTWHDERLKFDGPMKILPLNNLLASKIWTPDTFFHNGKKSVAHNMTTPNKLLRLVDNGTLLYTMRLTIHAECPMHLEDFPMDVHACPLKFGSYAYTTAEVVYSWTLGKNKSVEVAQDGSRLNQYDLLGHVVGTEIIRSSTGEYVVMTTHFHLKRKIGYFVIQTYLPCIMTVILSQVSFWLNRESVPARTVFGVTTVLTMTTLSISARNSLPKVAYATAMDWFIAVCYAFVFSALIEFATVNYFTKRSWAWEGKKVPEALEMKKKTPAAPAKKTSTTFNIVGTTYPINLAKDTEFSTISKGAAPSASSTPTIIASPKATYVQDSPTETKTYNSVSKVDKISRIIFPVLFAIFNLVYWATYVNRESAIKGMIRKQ
# Experiment: Displacement of [3H]flumazenil from GABAA alpha-3-beta-3-gamma-2 receptor
# Format: protein-complex assay
# Details: not given
row,SMILES,Ki [nM]
1,Cc1ncn2c1Cn1nc(CN3CCCC3=O)nc1-c1cc(Br)ccc1-2,515
2,Cc1cc(-c2nnc3c4ccccc4c(OCc4ccccn4)nn23)no1,1.5
3,Cc1ncn2c1Cn1ncnc1-c1cc(Br)ccc1-2,132

# Tested on: not listed separately
# Experiment: Solubility of the compound
# Format: physicochemical
# Details: not given
row,SMILES,solubility [µg/mL]
1,Cc1ncn2c1Cn1nc(CN3CCCC3=O)nc1-c1cc(Br)ccc1-2,550

# Molecular target: GABA-A receptor; alpha-2/beta-3/gamma-2 (Homo sapiens) (UniProt P18507+P28472+P47869)
# Experiment: Inverse agonist activity at GABAA alpha-2-beta-3-gamma-2 receptor assessed as modulation of GABA-induced chloride ion flux by electrophysiology assay relative to GABA
# Format: functional
# Details: not given
row,SMILES,Efficacy [%]
1,Cc1cc(-c2nnc3c4ccccc4c(OCc4ccccn4)nn23)no1,11

# Tested on: not listed separately
# Experiment: Volume of distribution at steady state in rat
# Format: ADME, organism-based
# Details: in vivo, read-out: Vdss
row,SMILES,Vd [L/kg]
1,Cc1ncn2c1Cn1nc(CN3CCCC3=O)nc1-c1cc(Br)ccc1-2,1.3

# Tested on: not listed separately
# Experiment: Permeability by PAMPA
# Format: ADME
# Details: read-out: permeability
row,SMILES,Papp [×10⁻⁶ cm/s]
1,Cc1ncn2c1Cn1nc(CN3CCCC3=O)nc1-c1cc(Br)ccc1-2,1.5

# Tested on: not listed separately
# Experiment: Lipophilicity, log D at pH 7.4
# Format: physicochemical
# Details: buffer
row,SMILES,logD
1,Cc1ncn2c1Cn1nc(CN3CCCC3=O)nc1-c1cc(Br)ccc1-2,1.5

# Molecular target: T2, GABA-A receptor; alpha-2/beta-3/gamma-2 (Homo sapiens, UniProt P18507+P28472+P47869)
# T2 sequence (P18507 whole entry): T1 sequence (P18507 whole entry)
# T2 sequence (P28472 whole entry): T1 sequence (P28472 whole entry)
# T2 sequence (P47869 whole entry): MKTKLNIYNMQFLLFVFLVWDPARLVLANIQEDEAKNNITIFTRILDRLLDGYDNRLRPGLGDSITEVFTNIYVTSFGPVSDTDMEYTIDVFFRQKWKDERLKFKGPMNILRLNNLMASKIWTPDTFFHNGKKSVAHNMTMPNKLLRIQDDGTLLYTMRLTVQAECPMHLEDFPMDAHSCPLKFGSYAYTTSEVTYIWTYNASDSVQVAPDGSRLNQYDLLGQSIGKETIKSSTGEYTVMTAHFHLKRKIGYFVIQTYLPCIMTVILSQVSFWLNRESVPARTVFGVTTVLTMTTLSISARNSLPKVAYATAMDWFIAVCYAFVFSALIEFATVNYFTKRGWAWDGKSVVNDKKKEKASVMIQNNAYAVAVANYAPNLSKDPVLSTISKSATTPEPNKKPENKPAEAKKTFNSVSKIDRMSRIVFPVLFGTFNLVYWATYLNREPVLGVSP
# Experiment: Displacement of [3H]flumazenil from GABAA alpha-2-beta-3-gamma-2 receptor
# Format: protein-complex assay
# Details: not given
row,SMILES,Ki [nM]
1,Cc1ncn2c1Cn1nc(CN3CCCC3=O)nc1-c1cc(Br)ccc1-2,669
2,Cc1ncn2c1Cn1ncnc1-c1cc(Br)ccc1-2,186

# Tested on: not listed separately
# Experiment: Ratio of drug level in brain to plasma in rat
# Format: ADME, organism-based
# Details: brain and plasma
row,SMILES,Kp
1,Cc1ncn2c1Cn1nc(CN3CCCC3=O)nc1-c1cc(Br)ccc1-2,0.09

# Molecular target: T3, GABA-A receptor; alpha-1/beta-3/gamma-2 (Homo sapiens, UniProt P14867+P18507+P28472)
# T3 sequence (P14867 whole entry): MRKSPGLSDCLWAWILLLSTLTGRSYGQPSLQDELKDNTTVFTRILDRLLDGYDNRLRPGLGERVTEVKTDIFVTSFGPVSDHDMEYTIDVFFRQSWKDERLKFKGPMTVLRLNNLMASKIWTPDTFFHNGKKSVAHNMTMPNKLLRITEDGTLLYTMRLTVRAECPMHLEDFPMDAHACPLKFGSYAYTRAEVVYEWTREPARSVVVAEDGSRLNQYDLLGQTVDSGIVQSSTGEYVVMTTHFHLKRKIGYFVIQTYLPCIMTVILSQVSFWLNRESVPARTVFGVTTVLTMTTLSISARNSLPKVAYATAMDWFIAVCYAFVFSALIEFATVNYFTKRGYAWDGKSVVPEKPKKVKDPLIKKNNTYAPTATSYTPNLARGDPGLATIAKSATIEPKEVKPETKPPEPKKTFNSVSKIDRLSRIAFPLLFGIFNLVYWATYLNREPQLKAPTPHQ
# T3 sequence (P18507 whole entry): T1 sequence (P18507 whole entry)
# T3 sequence (P28472 whole entry): T1 sequence (P28472 whole entry)
# Experiment: Displacement of [3H]flumazenil from GABAA alpha-1-beta-3-gamma-2 receptor
# Format: protein-complex assay
# Details: not given
row,SMILES,Ki [nM]
1,Cc1ncn2c1Cn1nc(CN3CCCC3=O)nc1-c1cc(Br)ccc1-2,624
2,Cc1cc(-c2nnc3c4ccccc4c(OCc4ccccn4)nn23)no1,1.5
3,Cc1ncn2c1Cn1ncnc1-c1cc(Br)ccc1-2,136

# Tested on: not listed separately
# Experiment: Half life in rat
# Format: ADME, organism-based
# Details: in vivo
row,SMILES,half-life [min]
1,Cc1ncn2c1Cn1nc(CN3CCCC3=O)nc1-c1cc(Br)ccc1-2,48

# Tested on: not listed separately
# Experiment: Oral bioavailability in rat
# Format: ADME, organism-based
# Details: in vivo
row,SMILES,bioavailability [%]
1,Cc1ncn2c1Cn1nc(CN3CCCC3=O)nc1-c1cc(Br)ccc1-2,32

# Molecular target: T4, GABA-A receptor; alpha-5/beta-3/gamma-2 (Homo sapiens, UniProt P18507+P28472+P31644)
# T4 sequence (P18507 whole entry): T1 sequence (P18507 whole entry)
# T4 sequence (P28472 whole entry): T1 sequence (P28472 whole entry)
# T4 sequence (P31644 whole entry): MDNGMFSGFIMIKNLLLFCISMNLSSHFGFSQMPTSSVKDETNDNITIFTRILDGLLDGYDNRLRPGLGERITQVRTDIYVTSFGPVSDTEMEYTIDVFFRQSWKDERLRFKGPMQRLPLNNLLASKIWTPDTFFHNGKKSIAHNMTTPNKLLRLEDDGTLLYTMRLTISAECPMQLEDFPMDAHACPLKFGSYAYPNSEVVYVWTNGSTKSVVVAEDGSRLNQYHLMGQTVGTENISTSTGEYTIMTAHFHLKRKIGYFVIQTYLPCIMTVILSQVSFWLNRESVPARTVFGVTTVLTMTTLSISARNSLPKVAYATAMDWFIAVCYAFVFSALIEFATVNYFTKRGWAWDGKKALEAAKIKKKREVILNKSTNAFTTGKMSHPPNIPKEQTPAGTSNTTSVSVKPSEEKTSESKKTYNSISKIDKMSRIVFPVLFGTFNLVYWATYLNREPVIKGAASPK
# Experiment: Displacement of [3H]flumazenil from GABAA alpha-5-beta-3-gamma-2 receptor
# Format: protein-complex assay
# Details: not given
row,SMILES,Ki [nM]
1,Cc1ncn2c1Cn1nc(CN3CCCC3=O)nc1-c1cc(Br)ccc1-2,7
2,Cc1cc(-c2nnc3c4ccccc4c(OCc4ccccn4)nn23)no1,1.5
3,Cc1ncn2c1Cn1ncnc1-c1cc(Br)ccc1-2,6

# Tested on: not listed separately
# Experiment: Clearance in rat
# Format: ADME, organism-based
# Details: in vivo
row,SMILES,clearance [mL/min/kg]
1,Cc1ncn2c1Cn1nc(CN3CCCC3=O)nc1-c1cc(Br)ccc1-2,30
